Eight compounds from ChEMBL document CHEMBL2157933, “The synthesis and antituberculosis activity of 5'-nor carbocyclic uracil derivatives” (Bioorg Med Chem, 2012) can be followed below.

≈ marks a conversion by molar mass, not a printed value.

As a reminder, the MIC99 is an inhibitory concentration at the 99% level, which refers to growth in some studies and to a panel of isolates in others.

Type in all cases: functional
In assay [1] the test system is Mycobacterium tuberculosis. Nature of the assay: Antibacterial activity against multidrug-resistant Mycobacterium tuberculosis MS-115 under anaerobic condition assessed as growth inhibition at 0.1 ug/ml by BACTEC method. As to conditions: read-out: GI.
The subject of assay [2] is Mycobacterium tuberculosis. Nature of the assay: Antibacterial activity against multidrug-resistant Mycobacterium tuberculosis MS-115 under anaerobic condition assessed as growth inhibition at 2 ug/ml by BACTEC method. Particulars: read-out: GI.
In assay [3] the test system is Mycobacterium tuberculosis. As to the kind of experiment: Antibacterial activity against multidrug-resistant Mycobacterium tuberculosis MS-115 under anaerobic condition by BACTEC method.
Assay [4] deals with Mycobacterium tuberculosis. As to the kind of experiment: Antibacterial activity against multidrug-resistant Mycobacterium tuberculosis MS-115 under anaerobic condition assessed as growth inhibition at 100 ug/ml by BACTEC method. Particulars: read-out: GI.
Assay [5] deals with Mycobacterium tuberculosis. As to the kind of experiment: Antibacterial activity against multidrug-resistant Mycobacterium tuberculosis MS-115 under anaerobic condition assessed as growth inhibition at 1 ug/ml by BACTEC method. Particulars: read-out: GI.
In assay [6] the test system is Mycobacterium tuberculosis. Nature of the assay: Antibacterial activity against multidrug-resistant Mycobacterium tuberculosis MS-115 under anaerobic condition assessed as growth inhibition at 10 to 20 ug/ml by BACTEC method.
Assay [7] relates to Mycobacterium tuberculosis. As to the kind of experiment: Antibacterial activity against multidrug-resistant Mycobacterium tuberculosis MS-115 under anaerobic condition assessed as growth inhibition at 5 ug/ml by BACTEC method. As to conditions: read-out: GI.
Assay [8] concerns Mycobacterium tuberculosis. Nature of the assay: Antibacterial activity against multidrug-resistant Mycobacterium tuberculosis MS-115 under anaerobic condition assessed as growth inhibition at 20 ug/ml by BACTEC method. Particulars: read-out: GI.
For assay [9], the system named is Mycobacterium tuberculosis. Nature of the assay: Antibacterial activity against multidrug-resistant Mycobacterium tuberculosis MS-115 under anaerobic condition assessed as growth inhibition at 10 ug/ml by BACTEC method. As to conditions: read-out: GI.

With `NNC(=O)c1ccncc1` [ISONIAZID], the inhibition of growth at 0.1 µg/mL in assay [1] worked out at 0%.
For `CC1COc2c(N3CCN(C)CC3)c(F)cc3c(=O)c(C(=O)O)cn1c23` (stereo unspecified) [OFLOXACIN], the inhibition of growth at 2 µg/mL in assay [2] turned out to be 100%. The compound further came in with an MIC99 in [3] of 2 µg/mL (≈ 5.53 µM).
For the compound `NC(=O)c1cnccn1` [PYRAZINAMIDE], the inhibition of growth at 100 µg/mL in [4] was 0%.
`CO[C@H]1/C=C/O[C@@]2(C)Oc3c(C)c(O)c4c(O)c(c(/C=N/N5CCN(C)CC5)c(O)c4c3C2=O)NC(=O)/C(C)=C\C=C\[C@H](C)[C@H](O)[C@@H](C)[C@@H](O)[C@@H](C)[C@H](OC(C)=O)[C@@H]1C` [RIFAMPIN]: the inhibition of growth at 1 µg/mL in assay [5] stood at 0%.
`CCCCCCCCCCCCC#Cc1cn(C2C=CC(O)C2)c(=O)[nH]c1=O` (racemic): in [6], the “growth inhibition (GI)” value came out at 100%.
On to `CC[C@@H](CO)NCCN[C@@H](CC)CO` [ETHAMBUTOL], for which, in [7], the inhibition of growth at 5 µg/mL was found to be 0%.
Turning to `CN[C@@H]1[C@H](O[C@H]2[C@H](O[C@H]3[C@H](O)[C@@H](O)[C@H](N=C(N)N)[C@@H](O)[C@@H]3N=C(N)N)O[C@@H](C)[C@]2(O)C=O)O[C@@H](CO)[C@H](O)[C@H]1O` [STREPTOMYCIN], the inhibition of growth at 0.1 µg/mL in assay [1] came to 0%.
As for `CCCCCCCCCCCCC#Cc1cn(C2C=CC(O)C2)c(=O)[nH]c1=O` (single isomer, unassigned; (-)), the inhibition of growth at 20 µg/mL in assay [8] was found to be 100%. Moreover, the inhibition of growth at 10 µg/mL in [9] stood at 99%. Besides, the MIC99 in [3] amounted to 10 µg/mL (≈ 25.9 µM).
